Laboratory results from patent US8389508B2 (Glaxo Group Limited, priority 2010, dated 2013).
Where a name gives a salt, the structure may show the parent alone.

What was measured:
[1] = biological target: T1, human Endothelial Differentiation Gene 1 (EDG1), S1P1 receptor (Homo sapiens, UniProt P21453); experiment: S1P1 Assay (Tango EDG1-bla/U2OS beta-lactamase reporter, agonist dose response); format: cell-based; conditions: EDG1-bla/U2OS cells, blue/green emission ratio, 10 point dose response, free base or salt form; read-out: pEC50 (S1P1 assay) (converted)
T1 construct: TEV protease site; Gal4-VP16 transcription factor; expressed in transfected cells; host or cells: EDG1-bla/U2OS (Tango GPCR-bla U2OS parental cell line)
T1 sequence (P21453 whole entry, the tested form may be a part): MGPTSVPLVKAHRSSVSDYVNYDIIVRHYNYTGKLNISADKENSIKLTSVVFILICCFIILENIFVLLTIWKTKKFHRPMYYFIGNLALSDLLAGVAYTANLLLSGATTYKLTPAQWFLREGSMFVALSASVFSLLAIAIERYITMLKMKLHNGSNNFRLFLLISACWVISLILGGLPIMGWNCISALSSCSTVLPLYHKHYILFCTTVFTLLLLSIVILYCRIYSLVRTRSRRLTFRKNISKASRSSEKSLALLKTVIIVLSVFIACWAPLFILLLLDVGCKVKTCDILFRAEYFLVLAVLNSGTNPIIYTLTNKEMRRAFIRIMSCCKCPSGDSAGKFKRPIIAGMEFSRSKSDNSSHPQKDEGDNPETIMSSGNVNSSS
Experimental: Recombinant EDG1-bla/U2OS cells (contain the human Endothelial Differentiation Gene 1 (EDG1) linked to a TEV protease site and a Gal4-VP16 transcription factor stably integrated into the Tango GPCR-bla U2OS parental cell line) were harvested from growth medium and passaged into assay medium (Invitrogen Freestyle Expression Medium). The cells were starved for 24 hours at 37° C., 5% CO2, harvested and resuspended in assay medium at a density of ˜200,000 cells/ml. All test compounds were dissolved in DMSO at a concentration of 10 mM and were prepared in 100% DMSO to provide 10 point dose response curves. Test compounds in the free base or in a salt form were prepared by Velocity11 Bravo automation (Agilent) were added to wells in columns 2-11 and 13-22; DMSO was added to wells in columns 12 and 23 as unstimulated controls and assay medium was added to wells in columns 1 and 24 as cell-free controls. An S1P1 agonist was added to wells in row 2, columns 2-11 as stimulated controls and test compounds were added to wells in row 2, columns 13-22 and rows 3-15, columns 2-11/13-22 (row 1 and 16 were empty and not used). Compounds in solution were added to the assay plate (Greiner 781090) using an Echo (Labcyte) dose-response program (50 nl/well). The unstimulated and cell-free controls were loaded with 50 nl/well pure DMSO to ensure that the DMSO concentration was constant across the plate for all assays. 50 μl of the cell suspension was added to each well in columns 2-23 of the plate (˜10,000 cells per well). 50 μl of assay medium was added to each well in the cell-free controls (columns 1 and 24). The cells were incubated overnight at 37° C./5% CO2.
(§1) 10 μl of 6× substrate mixture (LiveBLAzer™-FRET B/G substrate (CCF4-AM) Cat # K1096 from Invitrogen, Inc.) was added to each well using Bravo automation and the plates incubated at room temperature for 2 h in the dark. The plate was finally read on EnVision using one excitation channel (409 nm) and two emission channels (460 nm and 530 nm).
(§2) The blue/green emission ratio (460 nm/530 nm) was calculated for each well, by dividing the background-subtracted Blue emission values by the background-subtracted Green emission values. The dose response curve is based on sigmoidal dose-response model. All ratio data was normalized based upon the maximum emission ratio of positive control and minimum emission ratio of negative control (DMSO) on each plate. The intrinsic activity (IA) of each compound is defined as relative response normalised to a reference compound, whose maximum response is defined as 100% after curve fitting.

[2] = biological target: T2, human Endothelial Differentiation G-protein Coupled Receptor 3 (EDG3), S1P3 receptor (Homo sapiens, UniProt Q99500); experiment: S1P3 Assay (GeneBLAzer EDG3-Ga15-NFAT-bla HEK 293T beta-lactamase reporter, agonist dose response); format: cell-based; conditions: EDG3-Ga15-NFAT-bla HEK 293T cells, blue/green emission ratio, 10 point dose response, free base or salt form; read-out: pEC50 (S1P3 assay) (converted)
T2 construct: expressed in transfected cells; host or cells: GeneBLAzer EDG3-Ga15-NFAT-bla HEK 293T
T2 sequence (Q99500 whole entry): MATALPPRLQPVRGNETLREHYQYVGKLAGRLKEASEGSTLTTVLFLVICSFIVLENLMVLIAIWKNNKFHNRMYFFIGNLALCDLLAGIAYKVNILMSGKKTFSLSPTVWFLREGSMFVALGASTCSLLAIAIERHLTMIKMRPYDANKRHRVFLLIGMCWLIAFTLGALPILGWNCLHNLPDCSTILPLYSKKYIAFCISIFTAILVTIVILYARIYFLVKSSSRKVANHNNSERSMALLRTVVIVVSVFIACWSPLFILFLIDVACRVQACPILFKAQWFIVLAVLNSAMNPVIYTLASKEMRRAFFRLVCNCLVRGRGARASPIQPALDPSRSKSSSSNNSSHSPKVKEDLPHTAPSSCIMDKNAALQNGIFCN
Experimental: GeneBLAzer EDG3-Ga15-NFAT-bla HEK 293T cells (contain the human Endothelial Differentiation G-protein Coupled Receptor 3 (EDG3) and a beta-lactamase reporter gene under control of a NFAT response element and a promiscuous G Protein, Ga15, stably integrated into the GeneBLAzer Ga15-NFAT-bla HEK 293T cell line) were harvested from growth medium and suspended in assay medium (90% DMEM, 10% Charcoal-stripped FBS, 0.1 mM NEAA, 25 mM HEPES (pH 7.3), 100 U/ml penicillin, 100 μg/ml streptomycin) at a density of […]. All test compounds were dissolved in DMSO at a concentration of 10 mM and were prepared in 100% DMSO to provide 10 point dose response curves. Test compounds in the free base or in a salt form were prepared by Velocity 11 Bravo automation (Agilent) were added to wells in columns 2-11 and 13-22; DMSO was added to wells in columns 12 and 23 as unstimulated controls and assay medium was added to wells in columns 1 and 24 as cell-free controls. An S1P3 agonist was added to wells in row 2, columns 2-11 as stimulated controls and test compounds were added to wells in row 2, columns 13-22 and rows 3-15, columns 2-11/13-22 (row 1 and 16 were empty and not used). Compounds in solution were added to the assay plate (Greiner 781090) using an Echo (Labcyte) dose-response program (50 nl/well). The unstimulated and cell-free controls were loaded with 50 nl/well pure DMSO to ensure that the DMSO concentration was constant across the plate for all assays.
50 μl of the cell suspension was added to each well in columns 2-23 of the plate (˜10,000 cells per well). 50 μl of assay medium was added to each well in the cell-free controls (columns 1 and 24). The cells were incubated overnight at 37° C./5% CO2.
as §1, §2

| SMILES | EC50 [1] | EC50 [2] |
| --- | --- | --- |
| CCc1c(CN2CCC(C(=O)O)C2)cccc1-c1cnc(-c2ccc(OC(C)C)c(C#N)c2)s1 (stereo not shown) [Example 83] | ≤ 0.01 µM | > 10 µM |
| COc1c(CCN2CCC(C(=O)O)CC2)cc(F)cc1-c1nnc(-c2ccc(OC(C)C)c(C(F)(F)F)c2)s1 [Example 13, 1-{2-[5-fluoro-3-{5-[4-[(1-methylethyl)oxy]-3-(trifluoromethyl)phenyl]-1,3,4-thiadiazol-2-yl}-2-(methyloxy)phenyl]ethyl}-4-piperidinecarboxylic acid] | < 0.1 µM | > 10 µM |
| CCc1c(CN2CC(C(=O)O)C2)cccc1-c1cnc(-c2ccc(OC(C)C)c(Cl)c2)s1 [Example 39, 1-{[3-(2-{3-chloro-4-[(1-methylethyl)oxy]phenyl}-1,3-thiazol-5-yl)-2-ethylphenyl]methyl}-3-azetidinecarboxylic acid trifluoroacetate] | < 0.001 µM | > 10 µM |
| CCc1c(CCCN2CC(C(=O)O)C2)cccc1-c1cnc(-c2ccc(OC(C)C)c(C#N)c2)s1 [Example 93, 1-{3-[3-(2-{3-cyano-4-[(1-methylethyl)oxy]phenyl}-1,3-thiazol-5-yl)-2-ethylphenyl]propyl}-3-azetidinecarboxylic acid trifluoroacetate] | < 0.001 µM | > 3.16 µM |
| CCc1c(CCN2CC(C(=O)O)C2)cccc1-c1cnc(-c2ccc(OC(C)C)c(C#N)c2)s1 [Example 34, 1-{2-[3-(2-{3-cyano-4-[(1-methylethyl)oxy]phenyl}-1,3-thiazol-5-yl)-2-ethylphenyl]ethyl}-3-azetidinecarboxylic acid trifluoroacetate] | < 0.001 µM | > 3.16 µM |
| CCc1c(CCN2C[C@H](O)C[C@H]2C(=O)O)cccc1-c1nnc(-c2ccc(OC(C)C)c(Cl)c2)s1 [Example 55] | ≤ 0.01 µM | > 10 µM |
| COc1c(CCN2CC(C(=O)O)C2)cc(F)cc1-c1nnc(-c2ccc(OC(C)C)c(C(F)(F)F)c2)s1 [Example 14, 1-{2-[5-fluoro-3-{5-[4-[(1-methylethyl)oxy]-3-(trifluoromethyl)phenyl]-1,3,4-thiadiazol-2-yl}-2-(methyloxy)phenyl]ethyl}-3-azetidinecarboxylic acid] | ≤ 0.01 µM | > 10 µM |
| CCc1c(-c2nsc(-c3ccc(OC(C)C)c(Cl)c3)n2)cccc1C1CCN(CCC(=O)O)CC1 [Example 100, 3-{4-[3-(5-{3-chloro-4-[(1-methylethyl)oxy]phenyl}-1,2,4-thiadiazol-3-yl)-2-ethylphenyl]-1-piperidinyl}propanoic acid] | ≤ 0.01 µM | > 10 µM |
| CCc1c(CCN2CCC(C(=O)O)CC2)cccc1-c1nsc(-c2cnc(OC(C)C)c(Cl)c2)n1 [Example 75, 1-{2-[3-(5-{5-chloro-6-[(1-methylethyl)oxy]-3-pyridinyl}-1,2,4-thiadiazol-3-yl)-2-ethylphenyl]ethyl}-4-piperidinecarboxylic acid trifluoroacetate] | ≤ 0.01 µM | > 3.16 µM |
| CCc1c(CN2CCC(C(=O)O)CC2)cccc1-c1cnc(-c2ccc(CC(C)C)c(C#N)c2)s1 [Example 42, 1-[(3-{2-[3-cyano-4-(2-methylpropyl)phenyl]-1,3-thiazol-5-yl}-2-ethylphenyl)methyl]-4-piperidinecarboxylic acid trifluoroacetate] | ≤ 0.01 µM | > 10 µM |
| Cc1c(CCN2CCC(C(=O)O)CC2)cccc1-c1nnc(-c2ccc(OC(C)C)c(Cl)c2)s1 [Example 58, 1-{2-[3-(5-{3-chloro-4-[(1-methylethyl)oxy]phenyl}-1,3,4-thiadiazol-2-yl)-2-methylphenyl]ethyl}-4-piperidinecarboxylic acid] | ≤ 0.01 µM | > 3.16 µM |
| CCc1c(CN2CC(C(=O)O)C2)cccc1-c1nsc(-c2ccc(OC(C)C)c(C#N)c2)n1 [Example 17, 1-{[3-(5-{3-cyano-4-[(1-methylethyl)oxy]phenyl}-1,2,4-thiadiazol-3-yl)-2-ethylphenyl]methyl}-3-azetidinecarboxylic acid trifluoroacetate] | ≤ 0.01 µM | > 3.16 µM |
| CCc1c(CCN2CC(C(=O)O)C2)cccc1-c1nnc(-c2ccc(CC(C)C)c(C#N)c2)s1 [Example 10, 1-[2-(3-{5-[3-cyano-4-(2-methylpropyl)phenyl]-1,3,4-thiadiazol-2-yl}-2-ethylphenyl)ethyl]-3-azetidinecarboxylic acid] | < 0.001 µM | > 3.16 µM |
| COc1c(CCN2CC(C(=O)O)C2)cc(F)cc1-c1cnc(-c2ccc(OC(C)C)c(Cl)c2)s1 [Example 33, 1-{2-[3-(2-{3-chloro-4-[(1-methylethyl)oxy]phenyl}-1,3-thiazol-5-yl)-5-fluoro-2-(methyloxy)phenyl]ethyl}-3-azetidinecarboxylic acid trifluoroacetate] | < 0.001 µM | > 3.16 µM |
| CCc1c(CCN2CCC(C(=O)O)CC2)cccc1-c1nnc(-c2ccc(CC(C)C)c(C#N)c2)s1 [Example 11, 1-[2-(3-{5-[3-cyano-4-(2-methylpropyl)phenyl]-1,3,4-thiadiazol-2-yl}-2-ethylphenyl)ethyl]-4-piperidinecarboxylic acid] | < 0.001 µM | > 3.16 µM |
| CCc1c(CN2CCCC(C(=O)O)C2)cccc1-c1nnc(-c2ccc(OC(C)C)c(Cl)c2)s1 (stereo not shown) [Example 46] | < 0.1 µM | > 10 µM |
| CCc1c(CCN2CCC[C@H]2C(=O)O)cccc1-c1nnc(-c2ccc(OC(C)C)c(Cl)c2)s1 [Example 52] | < 0.1 µM | > 10 µM |
| CCc1c(CCN2CCCC(C(=O)O)C2)cccc1-c1cnc(-c2ccc(OC(C)C)c(C#N)c2)s1 (stereo not shown) [Example 92] | < 0.001 µM | > 3.16 µM |
| CCc1c(CCN2CCC[C@H]2C(=O)O)cccc1-c1nnc(-c2ccc(CC(C)C)c(C#N)c2)s1 [Example 59, 1-[2-(3-{5-[3-cyano-4-(2-methylpropyl)phenyl]-1,3,4-thiadiazol-2-yl}-2-ethylphenyl)ethyl]-L-proline] | ≤ 0.01 µM | > 10 µM |
| CCc1c(CN2CCC(C(=O)O)CC2)cccc1-c1nsc(-c2ccc(OC(C)C)c(C#N)c2)n1 [Example 16, 1-{[3-(5-{3-cyano-4-[(1-methylethyl)oxy]phenyl}-1,2,4-thiadiazol-3-yl)-2-ethylphenyl]methyl}-4-piperidinecarboxylic acid trifluoroacetate] |  | > 10 µM |
| CCc1c(CN2CCC(C(=O)O)CC2)cccc1-c1nnc(-c2ccc(OC(C)C)c(Cl)c2)s1 [Example 3, 1-{[3-(5-{3-chloro-4-[(1-methylethyl)oxy]phenyl}-1,3,4-thiadiazol-2-yl)-2-ethylphenyl]methyl}-4-piperidinecarboxylic acid trifluoroacetate] |  | > 3.16 µM |
